Where a name gives a salt, the structure may show the parent alone. Read-outs that look alike come from different tables or passages of the source.
Legend:
CRISP2 = target: T1, CRISP2 (Homo sapiens, UniProt P16562); test: MST binding to CRISP2; design: species or system mammalian
T1 construct: made in house; host or cells: E. coli BL21
T1 sequence (P16562 22-243): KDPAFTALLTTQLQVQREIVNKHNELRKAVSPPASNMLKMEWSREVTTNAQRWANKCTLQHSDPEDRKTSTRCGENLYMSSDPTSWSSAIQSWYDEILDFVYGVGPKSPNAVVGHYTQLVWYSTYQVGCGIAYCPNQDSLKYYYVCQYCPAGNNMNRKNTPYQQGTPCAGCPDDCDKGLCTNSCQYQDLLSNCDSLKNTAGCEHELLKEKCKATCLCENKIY
Description: To confirm the direct interaction of PSP94 with CRISP3 and to test whether PSP94 would also bind other CAP family members such as yeast Pry1, or CRISP2, we performed in vitro protein binding assay using microscale thermophoresis (MST). Therefore, PSP94 and the CAP family members, Pry1, CRISP2, and CRISP3, were expressed as fusion proteins with a C-terminal polyhistidine tag in Escherichia coli, and the proteins were affinity purified on nickel-NTA agarose beads. The purified CAP proteins were then fluorescently labeled using RED-tris-NTA and incubated with varying concentrations of PSP94. […] PSP94 thus has high binding affinity for all three CAP proteins tested, and it also binds the CAP domain of Pry1 (Pry1^CAP) alone.
DNA encoding proteins of interest were PCR amplified and cloned into NcoI and XhoI restriction sites of pET22b, which contains a PelB signal sequence to direct the secretion of expressed protein into the periplasmic space. Plasmids were transformed into E. coli BL21, and proteins were expressed with a C-terminal polyhistidine tag. Different induction strategies were used: overnight induction with lactose at 24 °C for Pry1, CRISP2, and PSP94 and 6 h of induction with 0.4 mM IPTG at 24 °C for the CAP domain of Pry1. Cells were collected and lysed, and the soluble cell lysate was incubated with nickel-nitrilotriacetic acid beads as per the manufacturer instructions (Qiagen). Beads were washed and loaded onto a Ni^2+-NTA column, and proteins were eluted with a buffer containing 60 mM NaH2PO4, 300 mM NaCl, and 300 mM imidazole, pH 8.0. […] Protein concentration was determined by Lowry assay using the Folin reagent and bovine serum albumin as protein standard.
MST experiments were performed to assess protein–protein, protein–lipid, and protein–calcium interactions using a Monolith NT.115 (Nanotemper Technologies). […] The dissociation constant Kd was obtained by plotting the normalized fluorescence (Fnorm) against the logarithm of ligand concentration. […]

CRISP2^N97P Y99P = target: T2, CRISP2^N97P Y99P (Homo sapiens, UniProt P16562, N97P/Y99P); test: MST binding to CRISP2 double mutant N97P Y99P; design: species or system mammalian; conditions: absence of PSP94, read-out: Kd, sterol binding by CRISP2^N97P Y99P
T2 construct: made in house; host or cells: E. coli
Experimental: Next, we generated all three double mutant combinations of CRISP2: N97P L98G, N97P Y99P, and L98G Y99P. These three double mutant versions of CRISP2 were again expressed as His-tagged proteins in E. coli and purified, and their capacity to bind sterols in the presence or absence of PSP94 was assessed by MST. […] The capacity of the CRISP2^L98G Y99P double mutant to bind sterols even in the presence of PSP94 was confirmed by the in vivo sterol export assay (Fig. 6, A and B). When expressed in yeast cells, the CRISP2^L98G Y99P double mutant was stably expressed and secreted as monitored by Western blotting (Fig. 6C).
MST experiments were performed to assess protein–protein, protein–lipid, and protein–calcium interactions using a Monolith NT.115 (Nanotemper Technologies). Proteins were labeled using the RED-tris-NTA His tag protein labeling kit. Labeled CAP proteins, 100 nM, were mixed with a serial dilution of unlabeled PSP94, PSP9^F24G, cholesterol sulfate, or calcium chloride, prepared in binding buffer (20 mM Tris pH 7.5, 30 mM NaCl, 0.05% Triton X-100). Samples were loaded into MST standard capillaries, and MST measurements were performed using an 80% laser power setting. The dissociation constant Kd was obtained by plotting the normalized fluorescence (Fnorm) against the logarithm of ligand concentration. […]

T2 sequence (P16562 22-243 N97P/Y99P): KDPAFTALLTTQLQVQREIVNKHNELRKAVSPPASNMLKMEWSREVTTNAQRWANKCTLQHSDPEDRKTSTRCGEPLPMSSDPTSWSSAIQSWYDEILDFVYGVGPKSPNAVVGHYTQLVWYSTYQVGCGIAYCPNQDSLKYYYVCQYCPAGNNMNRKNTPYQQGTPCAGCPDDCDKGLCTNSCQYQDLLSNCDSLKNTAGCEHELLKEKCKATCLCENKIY

## CC(C)CCC[C@@H](C)[C@H]1CC[C@H]2[C@@H]3CC=C4C[C@@H](OS(=O)(=O)O)CC[C@]4(C)[C@H]3CC[C@]12C [cholesterol sulfate]
CRISP2; PSP94^F24G preincubated 5 min at 24 °C, read-out: Kd, sterol binding by CRISP2 in presence of PSP94^F24G
  Kd: 9700 ± 3040 nM
CRISP2; absence of PSP94, read-out: Kd, sterol binding by CRISP2
  Kd: 1600 ± 900 nM
CRISP2^N97P Y99P
  Kd: 2700 ± 2300 nM

Source: article PMC8857485, “Prostate secretory protein 94 inhibits sterol binding and export by the mammalian CAP protein CRISP2 in a calcium-sensitive manner” (The Journal of Biological Chemistry, 2022)
